From ChEMBL document CHEMBL4118101 (Bioorg Med Chem, 2018)
Converted amounts (≈) assume the structure as drawn. The source made the active and inactive calls. The calls are words filed in the database; no cut-off is given here.

Tests used:
[1] = Cytotoxicity against HEK293 cells assessed as cell survival at 3.9 ug/ml after 24 hrs by resazurin based assay relative to control; conditions: human, read-out: Survival
Cryptococcus neoformans [2] = assay: Antifungal activity against Cryptococcus neoformans isolate CN1 measured after 48 hrs by CLSI M27-A3 protocol based method; type: functional; conditions: isolate CN1, 48 h
Pichia kudriavzevii = assay: Antifungal activity against Candida krusei ATCC 6258 measured after 48 hrs by CLSI M27-A3 protocol based method; type: functional
Candida albicans [3] = conditions: ATCC 10231, 0.975 ug/ml
[4] = Hemolytic activity in mouse RBC at 31.3 ug/ml after 1 hr relative to control; type: ADME, cell-based, Erythrocyte; conditions: mouse red blood cells (erythrocytes), at 31.3 µg/mL, read-out: Activity
Aspergillus nidulans [5] = assay: Antifungal activity against Aspergillus nidulans ATCC 38163 measured after 48 hrs in presence of 10% FBS by CLSI M38-A2 protocol based method; type: functional; conditions: ATCC 38163, 48 h
Candida albicans [6] = assay: Antifungal activity against fluconazole/ITC-resistant Candida albicans ATCC MYA-1003 measured after 48 hrs by CLSI M27-A3 protocol based method; type: functional
Nakaseomyces glabratus [7] = assay: Antifungal activity against Candida glabrata isolate CG3 measured after 48 hrs by CLSI M27-A3 protocol based method; type: functional
Candida albicans [8] = assay: Antifungal activity against fluconazole/ITC-resistant Candida albicans ATCC 90819 measured after 48 hrs by CLSI M27-A3 protocol based method; type: functional
Candida albicans [9] = assay: Antifungal activity against fluconazole/ITC-susceptible Candida albicans ATCC MYA-2310 measured after 48 hrs by CLSI M27-A3 protocol based method; type: functional
Candida albicans [10] = conditions: ATCC 10231, 0.975 ug/ml; remark: listed apart in the source
[11] = Hemolytic activity in mouse RBC at 0.48 ug/ml after 1 hr relative to control; type: ADME, cell-based, Erythrocyte; conditions: mouse red blood cells (erythrocytes), read-out: Activity
Candida albicans [12] = conditions: ATCC 10231, 0.975 ug/ml; remark: listed apart in the source
Aspergillus terreus = assay: Antifungal activity against Aspergillus terreus ATCC MYA-3633 measured after 48 hrs by CLSI M38-A2 protocol based method; type: functional; conditions: ATCC MYA-3633, 48 h
[13] = Hemolytic activity in mouse RBC at 3.9 ug/ml after 1 hr relative to control; type: ADME, cell-based, Erythrocyte; conditions: mouse red blood cells (erythrocytes), read-out: Activity
Candida albicans [14] = assay: Antifungal activity against fluconazole/ITC-resistant Candida albicans ATCC MYA-1237 measured after 48 hrs by CLSI M27-A3 protocol based method; type: functional
Cryptococcus neoformans [15] = assay: Antifungal activity against Cryptococcus neoformans isolate CN3 measured after 48 hrs by CLSI M27-A3 protocol based method; type: functional
Nakaseomyces glabratus [16] = assay: Antifungal activity against Candida glabrata ATCC 2001 measured after 48 hrs by CLSI M27-A3 protocol based method; type: functional, CBS 138
Candida albicans [17] = assay: Antifungal activity against Candida albicans ATCC 64124 measured after 48 hrs by CLSI M27-A3 protocol based method; type: functional
[18] = Hemolytic activity in mouse RBC at 1.95 ug/ml after 1 hr relative to control; type: ADME, cell-based, Erythrocyte; conditions: mouse red blood cells (erythrocytes), at 1.95 µg/mL, read-out: Activity
Candida albicans [19] = assay: Antifungal activity against fluconazole/ITC-susceptible Candida albicans ATCC MYA-2876 measured after 48 hrs by CLSI M27-A3 protocol based method; type: functional
Cryptococcus neoformans [20] = assay: Antifungal activity against Cryptococcus neoformans isolate CN2 measured after 48 hrs by CLSI M27-A3 protocol based method; type: functional
Candida parapsilosis [21] = assay: Antifungal activity against Candida parapsilosis ATCC 22019 measured after 48 hrs in presence of 10% FBS by CLSI M27-A3 protocol based method; type: functional
Nakaseomyces glabratus [22] = assay: Antifungal activity against Candida glabrata isolate CG1 measured after 48 hrs by CLSI M27-A3 protocol based method; type: functional
Candida parapsilosis [23] = assay: Antifungal activity against Candida parapsilosis isolate CP1 measured after 48 hrs by CLSI M27-A3 protocol based method; type: functional
Candida parapsilosis [24] = assay: Antifungal activity against Candida parapsilosis isolate CP2 measured after 48 hrs by CLSI M27-A3 protocol based method; type: functional
Candida albicans [25] = conditions: ATCC 10231, 0.975 ug/ml; remark: listed apart in the source
Aspergillus flavus = assay: Antifungal activity against Aspergillus flavus ATCC MYA-3631 measured after 48 hrs by CLSI M38-A2 protocol based method; type: functional; conditions: ATCC MYA-3631, 48 h
Candida parapsilosis [26] = assay: Antifungal activity against Candida parapsilosis ATCC 22019 measured after 48 hrs by CLSI M27-A3 protocol based method; type: functional
Candida parapsilosis [27] = assay: Antifungal activity against Candida parapsilosis isolate CP3 measured after 48 hrs by CLSI M27-A3 protocol based method; type: functional
Candida albicans [28] = assay: Induction of membrane permeabilization in Candida albicans ATCC 10231 assessed as membrane disruption at 4 times MIC after 1 hr by propidium iodide staining based fluorescence microscopy; type: functional, organism-based
A549 = assay: Cytotoxicity against human A549 cells up to 7.8 ug/ml after 24 hrs by resazurin based assay; type: cell-based; conditions: a549, 24 h
[29] = Hemolytic activity in mouse RBC at 7.8 ug/ml after 1 hr relative to control; type: ADME, cell-based, Erythrocyte; conditions: mouse red blood cells (erythrocytes), read-out: Activity
Nakaseomyces glabratus [30] = assay: Antifungal activity against Candida glabrata isolate CG2 measured after 48 hrs by CLSI M27-A3 protocol based method; type: functional
[31] = (§1) Hemolytic activity in mouse RBC at 62.5 ug/ml after 1 hr relative to control; type: ADME, cell-based, Erythrocyte; conditions: mouse red blood cells (erythrocytes), read-out: Activity
Candida albicans [32] = assay: Antifungal activity against Candida albicans ATCC 10231 measured after 48 hrs in presence of 10% FBS by CLSI M27-A3 protocol based method; type: functional
Candida albicans [33] = assay: Antifungal activity against Candida albicans ATCC 10231 measured after 48 hrs by CLSI M27-A3 protocol based method; type: functional; conditions: ATCC 10231, 48 h
Aspergillus nidulans [34] = assay: Antifungal activity against Aspergillus nidulans ATCC 38163 measured after 48 hrs by CLSI M38-A2 protocol based method; type: functional; conditions: ATCC 38163, 48 h
[35] = Hemolytic activity in mouse RBC at […] ug/ml after 1 hr relative to control; type: ADME, cell-based, Erythrocyte; conditions: mouse red blood cells (erythrocytes), read-out: Activity
BEAS-2B = assay: Cytotoxicity against human BEAS2B cells up to 7.8 ug/ml after 24 hrs by resazurin based assay; type: cell-based
Candida albicans [36] = assay: Inhibition of Candida albicans ATCC 10231 ERG11 assessed as 14alphamethyl ergosta-8,24(28)-diene-3beta,6alpha-diol composition of total sterols at 0.12 ug/ml incubated for 10 mins followed by saponification for 2 hrs by GC-MS method relative to control; parameters: scale not given: the % may be the effect or the level left
Candida albicans [37] = assay: Inhibition of Candida albicans ATCC 10231 ERG11 assessed as ergosterol composition of total sterols at 0.12 ug/ml incubated for 10 mins followed by saponification for 2 hrs by GC-MS method (reference value: 100%); parameters: scale not given: the % may be the effect or the level left
Candida albicans [38] = assay: Inhibition of Candida albicans ATCC 10231 ERG11 assessed as lanosterol composition of total sterols at 0.12 ug/ml incubated for 10 mins followed by saponification for 2 hrs by GC-MS method relative to control; parameters: scale not given: the % may be the effect or the level left
Candida parapsilosis [39] = assay: Fungistatic activity against Candida parapsilosis ATCC 22019 up to 4 times MIC incubated for 24 hrs by time kill assay; type: functional, organism-based
Candida albicans [40] = assay: Fungistatic activity against Candida albicans ATCC 10231 at 4 times MIC incubated for 24 hrs by time kill assay; type: functional, organism-based
Erythrocyte = assay: as §1; type: ADME, cell-based; conditions: erythrocyte, 1 h
Candida albicans [41] = assay: Inhibition of Candida albicans ATCC 10231 ERG11 assessed as eburicol composition of total sterols at 0.12 ug/ml incubated for 10 mins followed by saponification for 2 hrs by GC-MS method relative to control; parameters: scale not given: the % may be the effect or the level left
[42] = Nakaseomyces glabratus, 48 h, read-out: MIC
[43] = Lodderomyces parapsilosis, ATCC 22019, 48 h

## CCCCCCCCCCCCCCNCC(O)(Cn1cncn1)c1ccc(F)cc1F (configuration not stated)
[1]
  viability at 24 h, 3.9 ug/ml: > 50%
Cryptococcus neoformans [2]
  MIC: 0.27 µM (≈ 0.122 µg/mL)
Pichia kudriavzevii; Pichia kudriavzevii, ATCC 6258, 48 h
  MIC: 8.7 µM (≈ 3.92 µg/mL)
Candida albicans [3]
  Activity: 15.6%
[4]
  hemolysis at 1 h, 31.3 ug/ml: < 50%
Aspergillus nidulans [5]
  MIC: 31.2 µg/mL
Candida albicans [6]; Candida albicans, ATCC MYA-1003, 48 h, read-out: MIC
  MIC: 69.5 µM (≈ 31.3 µg/mL)
Nakaseomyces glabratus [7]; [42]
  MIC: 8.7 µM (≈ 3.92 µg/mL)
Candida albicans [8]; Candida albicans, ATCC 90819, 48 h, read-out: MIC
  MIC: 17.3 µM (≈ 7.8 µg/mL)
Candida albicans [9]; Candida albicans, ATCC MYA-2310, 48 h, read-out: MIC
  MIC: 69.5 µM (≈ 31.3 µg/mL)
Candida albicans [10]
  Activity: 36.4%
[11]
  hemolysis at 1 h, 0.48 ug/ml: 2%
Candida albicans [12]
  Activity: 1.16%
Aspergillus terreus
  MIC: 17.3 µM (≈ 7.8 µg/mL)
[13]
  hemolysis at 1 h, 3.9 ug/ml: 10%
Candida albicans [14]; Candida albicans, ATCC MYA-1237, 48 h, read-out: MIC
  MIC: > 69.5 µM
Cryptococcus neoformans [15]; Cryptococcus neoformans, isolate CN3, 48 h, read-out: MIC
  MIC: 1.1 µM (≈ 0.496 µg/mL)
Nakaseomyces glabratus [16]; Nakaseomyces glabratus, CBS 138, 48 h, read-out: MIC
  MIC: 2.2 to 4.3 µM (≈ 0.991 to 1.94 µg/mL)
Candida albicans [17]; Candida albicans, ATCC 64124, 48 h, read-out: MIC
  MIC: > 69.5 µM
[18]
  hemolysis at 1 h, 1.95 ug/ml: 3%
Candida albicans [19]; Candida albicans, ATCC MYA-2876, 48 h
  MIC: > 69.5 µM
Cryptococcus neoformans [20]; Cryptococcus neoformans, isolate CN2, 48 h, read-out: MIC
  MIC: 0.53 µM (≈ 0.239 µg/mL)
Candida parapsilosis [21]; [43]
  MIC: 0.975 µg/mL
Nakaseomyces glabratus [22]; [42]
  MIC: 4.3 µM (≈ 1.94 µg/mL)
Candida parapsilosis [23]; Lodderomyces parapsilosis, isolate CP1, 48 h
  MIC: 1.1 µM (≈ 0.496 µg/mL)
Candida parapsilosis [24]; Lodderomyces parapsilosis, isolate CP2, 48 h
  MIC: 2.2 µM (≈ 0.991 µg/mL)
Candida albicans [25]
  Activity: 8.33%
Aspergillus flavus
  MIC: > 69.5 µM
Candida parapsilosis [26]; [43]
  MIC: 1.1 µM (≈ 0.496 µg/mL)
Candida parapsilosis [27]; Lodderomyces parapsilosis, isolate CP3, 48 h
  MIC: 1.1 µM (≈ 0.496 µg/mL)
Candida albicans [28]
  Activity: inactive
A549
  Activity: Non-Toxic
[29]
  hemolysis at 1 h, 7.8 ug/ml: 17%
Nakaseomyces glabratus [30]; Nakaseomyces glabratus, isolate CG2, 48 h, read-out: MIC
  MIC: 4.3 µM (≈ 1.94 µg/mL)
[31]
  hemolysis at 1 h, 62.5 ug/ml: 77%
Candida albicans [32]; Candida albicans, ATCC 10231, 48 h
  MIC: 7.8 µg/mL
Candida albicans [33]
  MIC: 4.3 µM (≈ 1.94 µg/mL)
Aspergillus nidulans [34]
  MIC: 8.7 µM (≈ 3.92 µg/mL)
[35]
  hemolysis at 1 h, 0.975 ug/ml: 6%
  hemolysis at 1 h, 15.6 ug/ml: 29%
BEAS-2B
  Activity: Non-Toxic

## C[C@@H](c1ncncc1F)[C@](O)(Cn1cncn1)c1ccc(F)cc1F [VORICONAZOLE]
Pichia kudriavzevii
  MIC=<50: 0.34 µM (≈ 0.119 µg/mL)
Aspergillus nidulans [5]
  MIC: 0.12 µg/mL
Candida albicans [36]
  Activity: 9.86%
Candida albicans [6]
  MIC: 5.6 µM (≈ 1.96 µg/mL)
Candida albicans [37]
  Activity: 50.8%
Nakaseomyces glabratus [7]
  MIC: >89.9 µM
Candida albicans [8]
  MIC: 5.6 µM (≈ 1.96 µg/mL)
Candida albicans [9]
  MIC: 2.8 µM (≈ 0.978 µg/mL)
[11]
  hemolysis at 1 h, 0.48 ug/ml: 9%
Candida albicans [38]
  Activity: 15.2%
Aspergillus terreus
  MIC: 0.34 µM (≈ 0.119 µg/mL)
[13]
  hemolysis at 1 h, 3.9 ug/ml: 7%
Candida parapsilosis [39]
  Activity: Active
Candida albicans [14]
  MIC: 22.3 µM (≈ 7.79 µg/mL)
Cryptococcus neoformans [15]
  MIC: 0.35 µM (≈ 0.122 µg/mL)
Nakaseomyces glabratus [16]
  MIC: 0.17 to 0.69 µM
Candida albicans [17]
  MIC: 11.2 µM (≈ 3.91 µg/mL)
[18]
  hemolysis at 1 h, 1.95 ug/ml: 6%
Candida albicans [19]
  MIC=<50: 5.6 µM (≈ 1.96 µg/mL)
Cryptococcus neoformans [20]
  MIC: 2.76 µM (≈ 0.964 µg/mL)
Candida parapsilosis [21]
  MIC=<50: 0.015 µg/mL
Nakaseomyces glabratus [22]
  MIC: 2.76 µM (≈ 0.964 µg/mL)
Candida parapsilosis [23]
  MIC=<50: <0.06 µM
Candida parapsilosis [24]
  MIC=<50: <0.06 µM
Candida parapsilosis [26]
  MIC=<50: <0.06 µM
Candida parapsilosis [27]
  MIC=<50: <0.06 µM
Candida albicans [40]
  Activity: Active
Candida albicans [28]
  Activity: inactive
[29]
  hemolysis at 1 h, 7.8 ug/ml: 11%
Nakaseomyces glabratus [30]
  MIC: 11.2 µM (≈ 3.91 µg/mL)
Erythrocyte
  Activity: 100%
Candida albicans [32]
  MIC=<50: 0.48 µg/mL
Candida albicans [41]
  Activity: 1.73%
Aspergillus nidulans [34]
  MIC: 0.34 µM (≈ 0.119 µg/mL)
[35]
  hemolysis at 1 h, 0.975 ug/ml: 10%
  hemolysis at 1 h, 15.6 ug/ml: 3%
